Test results published in PubChem BioAssay AID2060506 (Molecular Pharmacology Branch, DTP, NCI, 2025).

Tested on: 598228-144-R-J1-PDC complex spheroid viability
Assay: Anticancer human tumor 598228-144-R-J1-PDC patient-derived serous endometrial adenocarcinoma cell line growth inhibition [GQUAD]
Details: for IC50: curve of first compound; for viability, T/C: stronger effect = lower value
Summary of the method: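 Tumor cells were grown as complex spheroids with HUVEC endothelial cells and mesenchymal stem cells as stroma. G-quadruplex stabilizers were combined with targeted agents over half-log dilutions from near the clinical Cmax, or from 10 microM.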
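Note: spheroids exposed to the agents for one week before reading.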
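Throughout, for viability, T/C: percent of vehicle DMSO control viability so 100% = untreated growth.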

In the case of `C=CC(=O)N1CCN(c2nc(=O)n(-c3c(C)ccnc3C(C)C)c3nc(-c4c(O)cccc4F)c(F)cc23)C(C)C1` (configuration not stated) + Cc1cnc(CNC(=O)c2c(=O)c3ccc(N4CCCN(C)CC4)nc3n3c2sc2ccccc23)cn1, the IC50 (second compound 0.0316 µM) is reported as > 10 µM, the IC50 (second compound 0.1 µM) is reported as > 10 µM and the IC50 (second compound 0.316 µM) is reported as > 10 µM. The IC50 (second compound 1 µM) was > 10 µM, the IC50 (second compound 3.16 µM) was > 10 µM and the IC50 (second compound 10 µM) was < 0.0316 µM. For the same compound, the viability, T/C (second compound 0.0316 µM, first compound 0.0316 µM) was 92.7%, the viability, T/C (second compound 0.0316 µM, first compound 0.1 µM) was 97.3% and the viability, T/C (second compound 0.0316 µM, first compound 0.316 µM) was 91%. For the same compound, the viability, T/C (second compound 0.0316 µM, first compound 1 µM) was 83.2%, the viability, T/C (second compound 0.0316 µM, first compound 3.16 µM) was 102% and the viability, T/C (second compound 0.0316 µM, first compound 10 µM) was 82.9%. The viability, T/C (second compound 0.1 µM, first compound 0.0316 µM) was 80.8%, the viability, T/C (second compound 0.1 µM, first compound 0.1 µM) was 66.3% and the viability, T/C (second compound 0.1 µM, first compound 0.316 µM) was 77.6%. The viability, T/C (second compound 0.1 µM, first compound 1 µM) was 81.7%, the viability, T/C (second compound 0.1 µM, first compound 3.16 µM) was 86.4% and the viability, T/C (second compound 0.1 µM, first compound 10 µM) was 80.4%. The viability, T/C (second compound 0.316 µM, first compound 0.0316 µM) was 89.3%, the viability, T/C (second compound 0.316 µM, first compound 0.1 µM) was 55.1% and the viability, T/C (second compound 0.316 µM, first compound 0.316 µM) was 62.6%. For the same compound, the viability, T/C (second compound 0.316 µM, first compound 1 µM) was 73.3%, the viability, T/C (second compound 0.316 µM, first compound 3.16 µM) was 80.6% and the viability, T/C (second compound 0.316 µM, first compound 10 µM) was 64.1%. The viability, T/C (second compound 1 µM, first compound 0.0316 µM) was 65.1%, the viability, T/C (second compound 1 µM, first compound 0.1 µM) was 74.9% and the viability, T/C (second compound 1 µM, first compound 0.316 µM) was 58.2%. It also gave a viability, T/C (second compound 1 µM, first compound 1 µM) of 83%, a viability, T/C (second compound 1 µM, first compound 3.16 µM) of 77.6% and a viability, T/C (second compound 1 µM, first compound 10 µM) of 79.8%. The viability, T/C (second compound 3.16 µM, first compound 0.0316 µM) was 69%, the viability, T/C (second compound 3.16 µM, first compound 0.1 µM) was 60.4% and the viability, T/C (second compound 3.16 µM, first compound 0.316 µM) was 60.1%. The viability, T/C (second compound 3.16 µM, first compound 1 µM) was 55.4%, the viability, T/C (second compound 3.16 µM, first compound 3.16 µM) was 63.3% and the viability, T/C (second compound 3.16 µM, first compound 10 µM) was 54%. For the same compound, the viability, T/C (second compound 10 µM, first compound 0.0316 µM) was 48.1%, the viability, T/C (second compound 10 µM, first compound 0.1 µM) was 36% and the viability, T/C (second compound 10 µM, first compound 0.316 µM) was 60.9%. It also gave a viability, T/C (second compound 10 µM, first compound 1 µM) of 50.9%, a viability, T/C (second compound 10 µM, first compound 3.16 µM) of 51.5% and a viability, T/C (second compound 10 µM, first compound 10 µM) of 5.43%.
